Test results published in US20130183719A1, “METHOD FOR PRODUCING VIRUS VECTOR” (priority 2010, published 2013).

Key:
PBMC = assay: Gene transduction of PBMC with MS-MA24-siTCR retrovirus supernatants from producer cells cultured in the test media (CD8/MAGE-A4 tetramer flow cytometry); assay type: cell-based, human; conditions: Example 9; FIG. 8
Text: A HEK 293 T cell (ATCC CRL-11268) was transfected with the codon modified TCR and siRNA-coexpression retroviral vector (MS-MA24-siTCR) described in WO 2008/153029 using Retrovirus Packaging Kit Eco (manufactured by TAKARA BIO INC.) according to the manufacturer's protocol to obtain an ecotropic retrovirus supernatant. The virus supernatant was filtered with a 0.45 μm filter (Milex HV, manufactured by Millipore). A PG13 cell was infected with the filtrate by a method using polybrene, and then cloned by a limiting dilution method.
(§1) A working cell bank (WCB) prepared from the cloned cell obtained in Example 7-1 was thawed in a water bath at 37° C. The cell solution thus thawed was put into a 15 mL centrifuging tube. After addition of a complete medium [a DMEM medium (manufactured by Gibco) containing 10% fetal bovine serum (10% FBS, manufactured by SAFC Biosciences)], the tube was subjected to centrifugation (500×g, 5 minutes, 20° C.). After the centrifugation, a supernatant was removed, and the cells were suspended in 10 mL of the complete medium and then counted. After cell counting, the cell suspension was adjusted with the complete medium to 78.5×10^4 cells/mL. To a 100 mm dish for cell culture (manufactured by IWAKI) were added 1 mL of the cell suspension and 14.7 mL of the complete medium. The cell culture was carried out in a CO2 incubator (37° C., 95% of humidity, 5% CO2). […]

retrovirus vector = assay: RNA copy number in retrovirus supernatant (Retrovirus Titer Set, real time PCR); conditions: Example 9; FIG. 9
Procedure: as §1, with “CO2). The cell was subcultured at intervals of 3 days.” for “CO2).”
The RNA copy number was determined using Retrovirus Titer Set (for Real Time PCR) (manufactured by TAKARA BIO INC.) according to a standard method described in the directions for use attached to the product.
The retrovirus producer cell as described in Example 7-1 was used to prepare virus supernatants. […] However, virus supernatants collected over 3 days were mixed and evaluated in this Example, whereas virus supernatants were collected over 4 days in Example 2-1.

For `CC(/C=C/C(=O)NO)=C\[C@@H](C)C(=O)c1ccc(N(C)C)cc1` [TSA, trichostatin A], the “gene transduction efficiency, TSA 500 nM compared with 50 nM” value (PBMC) was “more effective” and the “RNA copy number, TSA 500 nM compared with 50 nM” value (retrovirus vector) was “more effective”.
